Results reported in BindingDB's records for PubMed 32916382 (Zhejiang University, 2020).

assay: Inhibition of TNF-alpha (unknown origin) by ELISA assay

| Compound | IC50 [µM] |
| --- | --- |
| CCOP(=O)(OCC)SCCSCC | 1.16 |
| COP(=O)(OC)Oc1ccc([N+](=O)[O-])cc1 | 0.89 |
| CCCC[C@@H]1OC(=O)C2=CCCC[C@H]21 | 6.38 |
| CCSCCSP(=O)(OC)OC | 20.6 |

Next, values leading:

| IC50 [µM] | Compound |
| --- | --- |
| 1.42 | CC(C)=CCN1Cc2cc(Cl)c(Cl)c3nc(S)n(c23)C[C@@H]1C |
| 3.31 | CCOC(=O)C1=C(C)N=c2s/c(=C\c3ccc(N4CCOCC4)cc3)c(=O)n2C1c1ccccc1 (centres undefined) |
| 0.629 | CC(C)=CCN1Cc2cc(C)cc3[nH]c(=S)n(c23)CC1C (centres undefined) |

assay: Inhibition of IL-6 (unknown origin) by ELISA assay

| Compound | IC50 [µM] |
| --- | --- |
| CCOP(=O)(OCC)SCCSCC | 0.6 |
| COP(=O)(OC)Oc1ccc([N+](=O)[O-])cc1 | 0.56 |
| CCCC[C@@H]1OC(=O)C2=CCCC[C@H]21 | 1.63 |
| CCSCCSP(=O)(OC)OC | 13.8 |

The next lines start with the values.

| IC50 [µM] | Compound |
| --- | --- |
| 1.28 | CC(C)=CCN1Cc2cc(Cl)c(Cl)c3nc(S)n(c23)C[C@@H]1C |
| 0.86 | CCOC(=O)C1=C(C)N=c2s/c(=C\c3ccc(N4CCOCC4)cc3)c(=O)n2C1c1ccccc1 (centres undefined) |
| 2 | CC(C)=CCN1Cc2cc(C)cc3[nH]c(=S)n(c23)CC1C (centres undefined) |
